Where only a bound is given, the exact number is not on record here.

One test deals with Pfeiffer (EZH2 A677G). In words: In vitro 50% growth inhibition (GI50), MTT/CCK8, Pfeiffer cells. Type of test: cell-based, Human. The conditions noted are these: Homo sapiens, Pfeiffer, 240 h; Drug treatment for 10 days. The source says: (§1) In the present invention, a representative tumor cell line was selected to determine the cell growth inhibition activity of the present compound. Cell culture conditions and methods were in accordance with the requirements for each cell lines. The cells were subcultured in vitro for less than 3 generations each time, and as required, monoclone purification and identification of cell lines could be carried out.
(§2) The cell culture media used were RPMI1640 (Gibco) comprising 5-20% of fetal bovine serum (Gibco), 1% of double-antibiotic and 2 mM of glutamine.
(§3) Suspension culture cells were collected by centrifugation (1700 rpm, 3 minutes), and the supernatant was discarded and the cells were counted. According to each cell growth cycle, different concentrations of cells were prepared (1-10×10^4 cells per ml) and added to 96-well plates (Corning) with 100 μl per well, and then incubated overnight at 37° C., 5% CO2. The next day, the test compound was added to the cultured cells (2 wells in parallel). The final concentration of the solvent was less than 1/1,000. The cells were further cultured for 6 to 12 days and assayed by MTT.
(§4) The compound was stored at a concentration of 10 mM at −20° C. and diluted to two-fold or 10-fold series prior to use.
(§5) For the suspension culture cells, CCK8 was directly added to 10% of the final concentration. The cells were continually incubated for […].
(§6) The experiments were repeated 3 times and a statistical analysis of data was conducted.

For another test, the system named is Karpas-422 (EZH2 Y641N). The test can be described thus: In vitro 50% growth inhibition (GI50), MTT/CCK8, Karpas-422 cells. Type of test: cell-based. The conditions noted are these: Homo sapiens, KARPAS-422, 144 h; Drug treatment for 6 days.
Description: as §1, §2, §3, §4, §5, §6

Another test concerns SU-DHL-8 (EZH2 WT). The test can be described thus: In vitro 50% growth inhibition (GI50), MTT/CCK8, SU-DHL-8 cells. Type of test: cell-based. The conditions noted are these: Homo sapiens, SU-DHL-8, 144 h; Drug treatment for 6 days.
Description: as §1, §2, §3, §4, §5, §6

Broadly, the GI50 is the concentration at which growth is held to half of that of the control. A high value points to lower sensitivity of the cells. With `C=CC(=O)N1CCC(N(CC)c2cc(Br)cc(C(=O)NCc3c(C)cc(C)[nH]c3=O)c2C)C1` (stereo not drawn) [Example 1, 3-[(1-acryloyl-pyrrolidin-3-yl)-ethyl-amino]-5-bromo-N-(4,6-dimethyl-2-oxo-1,2-dihydro-pyridin-3-ylmethyl)-2-methyl-benzamide], the GI50 in the test with Pfeiffer (EZH2 A677G) is 0.001 to 0.01 µM; with Karpas-422 (EZH2 Y641N) it was 0.01 to 0.1 µM; in the test with SU-DHL-8 (EZH2 WT) it was above 1 µM.
The corresponding values for `C=CC(=O)N1CCC(N(CC)c2cc(F)cc(C(=O)NCc3c(C)cc(C)[nH]c3=O)c2C)C1` (stereo not drawn) [Example 2, 3-[(1-acryloyl-pyrrolidin-3-yl)-ethyl-amino]-5-fluoro-N-(4,6-dimethyl-2-oxo-1,2-dihydro-pyridin-3-ylmethyl)-2-methyl-benzamide] are 0.01 to 0.1 µM, 0.01 to 0.1 µM and above 1 µM.
In the same order, the values of `C=CC(=O)N1CCC(N(CC)c2cc(Cl)cc(C(=O)NCc3c(C)cc(C)[nH]c3=O)c2C)C1` (stereo not drawn) [Example 3, 3-[(1-acryloyl-pyrrolidin-3-yl)-ethyl-amino]-5-chloro-N-(4,6-dimethyl-2-oxo-1,2-dihydro-pyridin-3-ylmethyl)-2-methyl-benzamide] are 0.001 to 0.01 µM, 0.01 to 0.1 µM and above 1 µM.
In the same order, the values of `C=CC(=O)N1CCC(N(CC)c2cc(Br)cc(C(=O)NCc3c(C)cc(C)[nH]c3=O)c2C)CC1` [Example 6, 3-[(1-acryloyl-piperidin-4-yl)-ethyl-amino]-5-bromo-N-(4,6-dimethyl-2-oxo-1,2-dihydro-pyridin-3-ylmethyl)-2-methyl-benzamide] are 0.001 to 0.01 µM, 0.01 to 0.1 µM and above 1 µM.
In the case of `C=CC(=O)N1CCC(N(CCCC)c2cc(Br)cc(C(=O)NCc3c(C)cc(C)[nH]c3=O)c2C)C1` (stereo not drawn) [Example 9, 3-[(1-acryloyl-pyrrolidin-3-yl)-butyl-amino]-5-bromo-N-(4,6-dimethyl-2-oxo-1,2-dihydro-pyridin-3-ylmethyl)-2methyl-benzamide], the GI50 was 0.01 to 0.1 µM in the test on Pfeiffer (EZH2 A677G), above 1 µM in the test with Karpas-422 (EZH2 Y641N) and above 1 µM with SU-DHL-8 (EZH2 WT).
`C=CC(=O)N1CCC(N(C)c2cc(Br)cc(C(=O)NCc3c(C)cc(C)[nH]c3=O)c2C)C1` (stereo not drawn) [Example 10, 3-[(1-acryloyl-pyrrolidin-3-yl)-methyl-amino]-5-bromo-N-(4,6-dimethyl-2-oxo-1,2-dihydro-pyridin-3-ylmethyl)-2methyl-benzamide]: the GI50 in the test on Pfeiffer (EZH2 A677G) was 0.01 to 0.1 µM; with Karpas-422 (EZH2 Y641N) it was above 1 µM; in the test with SU-DHL-8 (EZH2 WT), above 1 µM.
As to `CC#CC(=O)N1CCC(N(CC)c2cc(Br)cc(C(=O)NCc3c(C)cc(C)[nH]c3=O)c2C)C1` (stereo not drawn) [Example 15], the GI50 in the test with Pfeiffer (EZH2 A677G) was 0.001 to 0.01 µM; with Karpas-422 (EZH2 Y641N), 0.01 to 0.1 µM; in the test with SU-DHL-8 (EZH2 WT) it was above 1 µM.
In the same order, the values of `C=CC(=O)N1CCC(N(CC)c2cc(OC)cc(C(=O)NCc3c(C)cc(C)[nH]c3=O)c2C)C1` (stereo not drawn) [Example 16, 3-[(1-acryloyl-pyrrolidin-3-yl)-ethyl-amino]-5-methoxy-N-(4,6-dimethyl-2-oxo-1,2-dihydrogen-pyridin-3-ylmethyl)-2methyl-benzamide] are 0.01 to 0.1 µM, 0.1 to 1 µM and above 1 µM.
For `C=CC(=O)N1CCC(N(CC)c2cc(-c3ccc(CN4CCCCC4)cc3)cc(C(=O)NCc3c(C)cc(C)[nH]c3=O)c2C)C1` (stereo not drawn) [Example 18, N-(4,6-dimethyl-2-oxo-1,2-dihydro-pyridin-3-ylmethyl)-5-[(1-acryloyl-pyrrolidin-3-yl)-ethyl-amino]-4′-(piperidin-1-ylmethyl)-4-methyl-biphenyl-3-carboxamide], the values for the GI50 with Pfeiffer (EZH2 A677G), in the test on Karpas-422 (EZH2 Y641N) and with SU-DHL-8 (EZH2 WT) were 0.001 to 0.01 µM, 0.01 to 0.1 µM and above 1 µM, respectively.
The corresponding values for `C=CC(=O)N1CCC(N(CC)c2cc(-c3ccc(CN(C)C)cc3)cc(C(=O)NCc3c(C)cc(C)[nH]c3=O)c2C)C1` (stereo not drawn) [Example 19, N-(4,6-dimethyl-2-oxo-1,2-dihydro-pyridin-3-ylmethyl)-5-[(1-acryloyl-pyrrolidin-3-yl)-ethyl-amino]-4′-(dimethylaminomethyl)-4-methyl-biphenyl-3-carboxamide] are 0.01 to 0.1 µM, 0.1 to 1 µM and above 1 µM.
The corresponding values for `C=CC(=O)N1CCC(N(CC)c2cc(-c3ccc(CN4CCOCC4)cc3)cc(C(=O)NCc3c(C)cc(C)[nH]c3=O)c2C)C1` (stereo not drawn) [Example 20, N-(4,6-dimethyl-2-oxo-1,2-dihydro-pyridin-3-ylmethyl)-5-[(1-acryloyl-pyrrolidin-3-yl)-ethyl-amino]-4′-(morpholin-4-ylmethyl)-4-methyl-biphenyl-3-carboxamide] are 0.001 to 0.01 µM, 0.1 to 1 µM and above 1 µM.
With `C=CC(=O)N1CCC(N(CC)c2cc(-c3ccc(CN4CCOCC4)c(Cl)c3)cc(C(=O)NCc3c(C)cc(C)[nH]c3=O)c2C)C1` (stereo not drawn) [Example 21, N-(4,6-dimethyl-2-oxo-1,2-dihydro-pyridin-3-ylmethyl)-5-[(1-acryloyl-pyrrolidin-3-yl)-ethyl-amino]-3′-chloro-4′-(morpholin-4-ylmethyl)-4-methyl-biphenyl-3-carboxamide], the GI50 with Pfeiffer (EZH2 A677G) is 0.001 to 0.01 µM; with Karpas-422 (EZH2 Y641N), 0.1 to 1 µM; in the test with SU-DHL-8 (EZH2 WT), above 1 µM.
In the same order, the values of `C=CC(=O)N1CCC(N(CC)c2cc(-c3ccc(CN4CCOCC4)c(F)c3)cc(C(=O)NCc3c(C)cc(C)[nH]c3=O)c2C)C1` (stereo not drawn) [Example 23, N-(4,6-dimethyl-2-oxo-1,2-dihydro-pyridin-3-ylmethyl)-5-[(1-acryloyl-pyrrolidin-3-yl)-ethyl-amino]-3′-fluoro-4′-(morpholin-4-ylmethyl)-4-methyl-biphenyl-3-carboxamide] are 0.001 to 0.01 µM, 0.01 to 0.1 µM and above 1 µM.
The corresponding values for `C=CC(=O)N1CCC(N(CC)c2cc(-c3ccc(N4CCOCC4)cc3)cc(C(=O)NCc3c(C)cc(C)[nH]c3=O)c2C)C1` (stereo not drawn) [Example 24, N-(4,6-dimethyl-2-oxo-1,2-dihydro-pyridin-3-ylmethyl)-5-[(1-acryloyl-pyrrolidin-3-yl)-ethyl-amino]-4′-(morpholin-4-yl)-4-methyl-biphenyl-3-carboxamide] are 0.001 to 0.01 µM, 0.1 to 1 µM and above 1 µM.
In the same order, the values of `C=CC(=O)N1CCC(N(CC)c2cc(-c3cccc(CN4CCOCC4)c3)cc(C(=O)NCc3c(C)cc(C)[nH]c3=O)c2C)C1` (stereo not drawn) [Example 30, N-(4,6-dimethyl-2-oxo-1,2-dihydro-pyridin-3-ylmethyl)-5-[(1-acryloyl-pyrrolidin-3-yl)-ethyl-amino]-4-methyl-3′-(morpholin-4-yl)-methyl-[1,1′-biphenyl]-3-carboxamide] are 0.001 to 0.01 µM, 0.01 to 0.1 µM and above 1 µM.
Take `C=CC(=O)N1CCC(N(CC)c2cc(-c3cccc(CN4CCCCC4)c3)cc(C(=O)NCc3c(C)cc(C)[nH]c3=O)c2C)C1` (stereo not drawn) [Example 31, N-(4,6-dimethyl-2-oxo-1,2-dihydro-pyridin-3-ylmethyl)-5-[(1-acryloyl-pyrrolidin-3-yl)-ethyl-amino]-4-methyl-3′-(piperidin-1-ylmethyl)-[1,1′-biphenyl]-3-carboxamide]: the GI50 was 0.001 to 0.01 µM with Pfeiffer (EZH2 A677G), 0.01 to 0.1 µM in the test on Karpas-422 (EZH2 Y641N) and above 1 µM with SU-DHL-8 (EZH2 WT).
